Measured values as given in US10172869B2, “Progesterone receptor modulators for use in the therapy of uterine fibroids” (PregLem SA, priority 2013, dated 2019).

Legend:
Assay type in all cases: in vivo, human
uterine fibroids = assay: Example 1 Phase III study: uterine bleeding, amenorrhea and return of menstruation (PBAC)
Protocol: (§1) Multicenter, Phase III Study to Investigate the Efficacy and Safety of 3-Months of Treatment with UPA Followed by 10 Days of Treatment with NETA or Placebo
(§2) All patients received a 3-month treatment course of UPA 10 mg once-daily followed by randomized oral NETA 10 mg once-daily or matching placebo for 10 days. UPA treatment was started during the first 4 days of menstruation. NETA or placebo was taken daily for the first 10 days following the cessation of UPA. The schedule incorporated the potential for women to enter an extension study involving repeated intermittent courses of UPA 10 mg.
(§3) In the clinical trial the effect of treatment of uterine fibroids have been assessed by means of parameters such as uterine bleeding using the pictorial blood-loss assessment chart (PBAC), condition of the uterus using transvaginal ultrasound (TVUS) and endometrial biopsy, endometrial histology using endometrial biopsy and pain using the Short-Form McGill Pain Questionnaire (SF-MPQ and quality of life using the Uterine Fibroid Symptom and Health-Related Quality of Life (UFS-QoL) questionnaire.
The efficacy end points were: percentage of amenorrheic patients at the end of UPA treatment; change from baseline in the volume of the three largest myomas to end of UPA treatment and 2 weeks after menstruation following end of NETA/placebo treatment; and change from baseline in pain and QoL to end of UPA treatment.
(§4) Exploratory endpoints included assessment of the strength of the first menstruation after UPA treatment (using PBAC), time to return of menstruation following treatment end, and frequency of post-treatment PAEC observed in the endometrial biopsy after return of menstruation.

[1] = Example 1 Phase III study: adverse events (TEAEs, SAEs)
Protocol: as §1, §2
(§5) The safety endpoints included the number and proportion of patients experiencing treatment-emergent adverse events (TEAEs), including clinically significant changes in vital signs, physical examination, gynecological or breast examination, electrocardiogram (ECG), ovarian ultrasound, changes from baseline in endometrial thickness and clinically significant changes in endometrium biopsy. Other safety endpoints were change from baseline in hematology, coagulation, biochemistry, lipids, adrenocorticotropic hormone (ACTH), thyroid stimulating hormone (TSH) and prolactin, as well as serum levels of estradiol (E2).

endometrium [2] = assay: Example 1 Phase III study: endometrial histology (biopsy)
Protocol: as §1, §2, §3, §5, §4

endometrium [3] = assay: Example 1 Phase III study: endometrial thickness; conditions: after NETA double-blind treatment; 0% at screening
Protocol: as §1, §2, §5

[4] = system: myomas and heavy uterine bleeding; assay: Example 2 long-term extension study: uterine bleeding, amenorrhea and return of menstruation (PBAC)
Excerpt: (§6) Long-Term Extension of a Multicenter, Phase III Study to Investigate the Efficacy and Safety of 3-Months of Treatment with UPA Followed by 10 Days of Treatment with NETA or Placebo in Subjects with Myomas and Heavy Uterine Bleeding
(§7) The study consisted of three periods of 3 months open-label UPA treatment, each followed by 10 days of double-blind treatment with NETA or placebo and then a drug-free period. Subjects were randomly assigned to a NETA or matching placebo arm with a 1:1 ratio.
In study described in Example 1, 251 subjects were screened at 21 sites and 209 subjects started treatment with UPA of which 202 attended the end of UPA treatment visit. Of those that completed study of Example 1 (190 subjects), 132 subjects from 19 sites opted to continue in to the extension study.
(§8) In the study of Example 1 and for each present study courses, UPA 10 mg was orally administered once daily for a period of 90 days, followed by 10 mg NETA or matching placebo once daily for a period of 10 days. The first treatment course in the present study consisted of 90 days UPA 10 mg treatment followed by 10 days of double-blind treatment (same as in Example 1 study) started between the first and fourth day of menstruation (inclusive) following visit after the end of treatment, or one month later if uterine sparing surgery had been performed and myomas were still present. The second and third treatment courses of the present study started on the first day of menstruation following visits after ends of each treatment courses, respectively.
(§9) Parameters assessed are the same as it was described in Example 1.

[5] = Example 2 long-term extension study: safety assessments (TEAEs, SAEs); conditions: intermittent repeated administration schedule
Excerpt: as §6, §7, §8, §9

endometrium [6] = assay: Example 2 long-term extension study: endometrium thickness and endometrium biopsy; conditions: after each treatment course
Excerpt: as §6, §7, §8, §9

## C#C[C@]1(OC(C)=O)CC[C@H]2[C@@H]3CCC4=CC(=O)CC[C@@H]4[C@H]3CC[C@@]21C [NETA, norethindrone (norethisterone) acetate]
Uterine fibroids; NETA 10 mg once-daily for 10 days after UPA, p≤0.001 vs placebo
  median return to menstruation following end of UPA treatment: 14.0 days
Uterine fibroids; NETA treatment group, first menstruation following treatment completion compared to baseline, p=0.012 vs placebo
  median change in PBAC score: −122
[1]; double-blind treatment phase, 10 days after UPA
  women reporting events: 11.2%
[1]; post-treatment phase
  women with TEAEs: 26.5%
Endometrium [2]; after NETA treatment
  extensive cyst formation (one of the features of PAEC): 2.4%
Endometrium [2]; after treatment, 10.9% at screening
  percentage of non-physiological endometrial features: 22.6%
Endometrium [2]; biopsy 12 weeks after UPA treatment
  endometrial polyp: one benign endometrial polyp
Endometrium [2]; biopsy 12 weeks after UPA treatment, subgroup
  cases of PAEC: no case of PAEC
Endometrium [3]
  percentage of women with endometrial thickness >16 mm: 3.5%
[4]; first menstruation after each treatment course
  heaviness of bleeding as measured by the PBAC score (days 1-8): decrease after each subsequent treatment course
[4]; treatment courses 1-4, NETA group compared to placebo group, p<0.001
  median times to return of menstruation following discontinuation of UPA: significantly shorter
[5]
  safety and tolerability assessment: did not raise any safety concerns
Endometrium [6]
  endometrium thickness, comparison of the 2 treatment groups: placebo group were higher compared to those for the NETA group
